This note sets out measurements from ChEMBL document CHEMBL4725290, “Synthesis of 2-guanidinyl pyridines and their trypsin inhibition and docking” (Bioorg Med Chem, 2020).

Data set [1] in a line: Competitive inhibition of bovine pancreas trypsin assessed as release of para-nitroaniline using L-BAPA as substrate in presence of 4-nitrophenyl 4-guanidinobenzoate hydrochloride as inhibitor at pH 7.2 at 25 degC. On the set-up: species or system Bos taurus.
Data set [2] in a line: Stability of the compound assessed as bovine trypsin-mediated hydrolysis for 6 days by NMR spectroscopy. The class given is ADME, Bos taurus. Conditions: cattle, isolated protein, 144 h; time 6 day.
The species entered for a further data set is Bos taurus. Briefly: Competitive inhibition of bovine pancreas trypsin assessed as release of para-nitroaniline using L-BAPA as substrate at pH 7.2 in absence of inhibitor at 25 degC.
Data set [3] in a line: Competitive inhibition of bovine trypsin using Z-Arg-SBzl as substrate at pH 7.5 at 25 degC. On the set-up: species or system Bos taurus.

Regarding `Cc1cccc(NC(=N)N)n1`, the Ki (as a rule, the dissociation constant of the complex between target and ligand, obtained from inhibition or displacement) in data set [1] stood at 91.3 µM.

Consider `COC(=O)c1ccc(NC(=N)N)nc1.O=C(O)C(F)(F)F`, for which the Ki in data set [1] came to 1080 µM. Besides, in data set [2], the Stabilty result was “Stable”.

Regarding `N=C(N)Nc1ccc(C(F)(F)F)cn1`, in the data set filed under Bos taurus, the V0 is 10.3 10^-8M/s. Also, the Ki in data set [1] was determined as 218 µM.

On to `N=C(N)Nc1ccc(I)cn1`, for which the V0 in the data set listed under Bos taurus is 4.4 10^-8M/s. For the same molecule, the Ki in data set [1] worked out at 15.1 µM.

For the molecule `CN(C)/C=N/c1ccc(Br)cn1`, in data set [1], the Ki was above 17200 µM.

For the molecule `N=C(N)Nc1ccncn1`, the Ki in data set [1] is 514 µM.

Consider `Cc1ccc(NC(=N)N)nc1`, for which the Ki in data set [1] was determined as 104 µM.

With `N=C(N)Nc1ccccn1`, the V0 in the data set listed under Bos taurus is 8.09 10^-8M/s. For the same molecule, the Ki in data set [1] was 83.2 µM.

`N=C(N)Nc1ccc(-c2ccccc2)cn1`: in data set [1], the Ki was 955 µM.

Take `N=C(N)Nc1cccnc1`: the Ki in data set [1] came to 950 µM.

With `CON(C)C(=O)c1ccc(NC(=N)N)nc1`, the Ki in data set [1] is 2550 µM.

As to `N=C(N)Nc1ccc(C=O)cn1`, the Ki in data set [1] stood at 289 µM.

Consider `CC(=O)c1ccc(NC(=N)N)nc1`, for which the Ki in data set [1] came to 5040 µM.

Consider `N=C(N)Nc1ccc(Cl)cc1`, for which the Ki in data set [1] was determined as 127 µM.

Consider `N=C(N)Nc1ccc(Cl)cn1`, for which, in the data set filed under Bos taurus, the V0 is 8.26 10^-8M/s. For the same molecule, the Ki in data set [1] came to 34.7 µM.

As to `N=C(N)Nc1ccc(F)cn1`, the V0 in the data set filed under Bos taurus is 3.79 10^-8M/s. Besides, the inhibitory constant (Ki) in data set [1] came out at 144 µM.

Consider `Cc1cccnc1NC(=N)N`, for which the inhibitory constant (Ki) in data set [1] came to 14 µM.

As to `Cc1ccnc(NC(=N)N)c1`, the inhibition constant (Ki) in data set [1] turned out to be 119 µM.

With `N=C(N)c1ccccc1` [BENZAMIDINE], the Ki in data set [3] worked out at 35 µM.

Regarding `N=C(N)Nc1ccc(Br)cn1`, the V0 in the data set filed under Bos taurus was 3.85 10^-8M/s. Also, in data set [1], the Ki was determined as 20.5 µM.
